Results: ChEMBL document CHEMBL5532743, “Discovery of a Pentapeptide Antagonist to Human Neuromedin U Receptor 1” (ACS Med Chem Lett, 2024)
Active and inactive are the calls of the source. The rule behind the calls is not given here. Non-standard residues stand in square brackets, D forms with d. Residues, ends and D or L forms follow the SMILES beside them. *: point of attachment. NMeW = CN[C@@H](Cc1c[nH]c2ccccc12)C(=O)O; Phe(4-F) = N[C@@H](Cc1ccc(F)cc1)C(=O)O; NMeY = CN[C@@H](Cc1ccc(O)cc1)C(=O)O; Acetyl(2-thienyl) = O=C(Cc1cccs1)*; NMeF = CN[C@@H](Cc1ccccc1)C(=O)O; hArg = N=C(N)NCCCC[C@H](N)C(=O)O; αMeF = C[C@](N)(Cc1ccccc1)C(=O)O; Tic = O=C(O)[C@@H]1Cc2ccccc2CN1; NMeN = CN[C@@H](CC(N)=O)C(=O)O; NMeL = CN[C@@H](CC(C)C)C(=O)O; Pip = O=C(O)[C@@H]1CCCCN1

Assays:
[1] = target: T1, Neuromedin-U receptor 1 (Homo sapiens) (UniProt Q9HB89); assay: Antagonist activity at human NMUR1 stably expressed in CHO cells by Fluo-4 AM dye based calcium mobilization assay; type: functional, cell-based; conditions: dose 30-300 nM
T1 sequence (whole entry): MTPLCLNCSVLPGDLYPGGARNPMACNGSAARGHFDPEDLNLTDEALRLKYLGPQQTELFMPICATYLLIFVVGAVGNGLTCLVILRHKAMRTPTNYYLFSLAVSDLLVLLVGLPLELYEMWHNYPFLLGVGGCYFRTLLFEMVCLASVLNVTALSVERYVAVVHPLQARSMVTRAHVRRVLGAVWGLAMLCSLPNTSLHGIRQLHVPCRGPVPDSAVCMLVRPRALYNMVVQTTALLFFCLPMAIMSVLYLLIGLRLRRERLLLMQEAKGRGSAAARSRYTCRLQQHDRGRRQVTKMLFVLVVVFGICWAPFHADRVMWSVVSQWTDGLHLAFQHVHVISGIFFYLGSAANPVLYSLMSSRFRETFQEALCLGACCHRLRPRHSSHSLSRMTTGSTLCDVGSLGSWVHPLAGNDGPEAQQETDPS

Neuromedin-U receptor 2 [2] = target: T2, Neuromedin-U receptor 2 (Homo sapiens, UniProt Q9GZQ4); assay: Antagonist activity at human NMUR2 stably expressed in CHO cells by Fluo-4 AM dye based calcium mobilization assay; type: functional, cell-based; conditions: filed as antagonist, dose 30-300 nM
T2 sequence (Q9GZQ4 whole entry): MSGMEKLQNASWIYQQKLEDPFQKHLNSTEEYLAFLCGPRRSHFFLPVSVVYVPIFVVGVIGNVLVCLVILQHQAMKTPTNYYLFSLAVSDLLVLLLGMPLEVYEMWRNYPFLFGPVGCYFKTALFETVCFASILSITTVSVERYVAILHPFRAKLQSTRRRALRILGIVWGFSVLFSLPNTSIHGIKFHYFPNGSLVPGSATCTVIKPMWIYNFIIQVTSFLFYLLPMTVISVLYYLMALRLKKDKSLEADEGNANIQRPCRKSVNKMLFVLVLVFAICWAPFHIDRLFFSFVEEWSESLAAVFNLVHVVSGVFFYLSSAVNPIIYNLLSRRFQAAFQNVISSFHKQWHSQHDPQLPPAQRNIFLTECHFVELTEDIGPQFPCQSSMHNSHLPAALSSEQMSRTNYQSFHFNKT

Homo sapiens = organism: Homo sapiens; assay: Selectivity ratio of human NMUR2 to human NMUR1
[3] = target: T1, Neuromedin-U receptor 1 (Homo sapiens); assay: Binding affinity to human NMUR1 assessed as equilibrium binding constant; conditions: filed as antagonist
[4] = target: Neuromedin-U receptor 2 (Mus musculus) (UniProt Q8BZ39); assay: Antagonist activity at mouse NMUR2 expressed in HEK293 cells by Fluo-4 AM dye based calcium mobilization assay; type: functional, cell-based
Neuromedin-U receptor 2 (Mus musculus), sequence (Q8BZ39 whole entry): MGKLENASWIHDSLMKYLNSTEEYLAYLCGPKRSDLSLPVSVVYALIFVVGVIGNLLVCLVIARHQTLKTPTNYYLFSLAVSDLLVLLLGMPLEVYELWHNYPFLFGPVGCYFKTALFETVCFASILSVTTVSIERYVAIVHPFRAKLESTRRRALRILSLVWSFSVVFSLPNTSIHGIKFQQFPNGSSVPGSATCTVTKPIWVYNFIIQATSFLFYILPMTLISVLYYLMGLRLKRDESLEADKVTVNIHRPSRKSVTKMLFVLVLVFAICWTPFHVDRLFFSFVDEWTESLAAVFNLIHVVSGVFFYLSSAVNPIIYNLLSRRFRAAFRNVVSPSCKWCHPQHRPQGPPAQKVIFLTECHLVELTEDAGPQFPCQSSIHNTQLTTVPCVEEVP

[5] = target: T3, Neuromedin-U receptor 1 (Mus musculus) (UniProt O55040); assay: Antagonist activity at mouse NMUR1 expressed in HEK293 cells by Fluo-4 AM dye based calcium mobilization assay; type: functional, cell-based
T3 sequence (whole entry): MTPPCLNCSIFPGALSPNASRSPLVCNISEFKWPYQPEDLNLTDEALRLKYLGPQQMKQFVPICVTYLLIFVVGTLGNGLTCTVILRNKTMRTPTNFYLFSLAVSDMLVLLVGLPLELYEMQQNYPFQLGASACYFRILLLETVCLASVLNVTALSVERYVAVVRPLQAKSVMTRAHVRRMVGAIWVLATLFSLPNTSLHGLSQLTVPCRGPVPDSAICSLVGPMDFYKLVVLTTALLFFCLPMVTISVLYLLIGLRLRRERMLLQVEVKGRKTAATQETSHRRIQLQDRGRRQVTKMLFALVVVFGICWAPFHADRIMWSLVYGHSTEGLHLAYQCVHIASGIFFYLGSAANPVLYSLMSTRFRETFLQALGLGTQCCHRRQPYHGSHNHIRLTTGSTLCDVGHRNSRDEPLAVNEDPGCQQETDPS

[6] = target: T1, Neuromedin-U receptor 1 (Homo sapiens); assay: Antagonist activity at human NMUR1 stably expressed in CHO cells at 100 to 1000 nM by Fluo-4 AM dye based calcium mobilization assay; type: functional, cell-based; conditions: filed as antagonist, dose 100-1000 nM
Neuromedin-U receptor 2 [7] = target: T2, Neuromedin-U receptor 2; assay: Binding affinity to human NMUR2 assessed as equilibrium binding constant; conditions: filed as antagonist
Neuromedin-U receptor 2 [8] = target: T2, Neuromedin-U receptor 2; assay: Antagonist potency at human NMUR2 stably expressed in CHO cells by Fluo-4 AM dye based calcium mobilization assay; type: functional, cell-based; conditions: read-out: pA2 (converted)
Neuromedin-U receptor 1 = target: T4, Neuromedin-U receptor 1 (Homo sapiens, UniProt Q9HB89); assay: Antagonist potency at human NMUR1 stably expressed in CHO cells by Fluo-4 AM dye based calcium mobilization assay; type: functional, cell-based; conditions: read-out: pA2 (converted)
T4 sequence (Q9HB89 whole entry): T1 sequence (whole entry)

[9] = Drug degradation in human serum assessed as half life by RP-HPLC analysis; type: ADME, cell-free
[10] = Drug metabolism in rat serum assessed as (2S)-5-guanidino-2-[[(2S)-1-[(2S)-5-guanidino-2-[[(2S)-2-[[(2S)-3-(1H-indol-3-yl)-2-[methyl-[2-(2-thienyl)acetyl]amino]propanoyl]amino]-2-methyl-3-phenyl-propanoyl]amino]pentanoyl]pyrrolidine-2-carbonyl]amino]pentanoic acid formation by RP-HPLC analysis; type: ADME, cell-free
[11] = Drug degradation in human serum assessed as drug recovery incubated for 15 mins in presence of aprotinin by RP-HPLC analysis; type: ADME, cell-free; conditions: 0.25 h
[12] = Retention time in human serum measured at 40 min by RP-HPLC analysis; type: ADME, cell-free
[13] = Drug degradation in human serum assessed as drug recovery incubated for 15 mins in presence of argatroban by RP-HPLC analysis; type: ADME, cell-free; conditions: with argatroban, read-out: Drug recovery
[14] = Drug degradation in rat serum by RP-HPLC analysis; type: ADME, cell-free
[15] = Stability in human plasma assessed drug recovery measured at 120 mins by RP-HPLC analysis; type: ADME, cell-free; conditions: read-out: Drug recovery

CN(C(=O)Cc1cccs1)[C@@H](Cc1ccccc1)C(=O)N[C@@H](Cc1ccccc1)C(=O)N[C@@H](CCCNC(=N)N)C(=O)N1CCC[C@H]1C(=O)N[C@@H](CCCNC(=N)N)C(=O)N[C@@H](CC(N)=O)C(N)=O ({Acetyl(2-thienyl)}-[NMeF]FRPRN-NH2)
Activity ([1]; filed as antagonist): Active

CC(C)C[C@@H](C(=O)N[C@@H](Cc1ccccc1)C(=O)N[C@@H](CCCNC(=N)N)C(=O)N1CCC[C@H]1C(=O)N[C@@H](CCCNC(=N)N)C(=O)N[C@@H](CC(N)=O)C(N)=O)N(C)C(=O)Cc1cccs1 ({Acetyl(2-thienyl)}-[NMeL]FRPRN-NH2)
Activity ([1]; filed as antagonist): Active

CN(C(=O)Cc1cccs1)[C@@H](CC(N)=O)C(=O)N[C@@H](Cc1ccccc1)C(=O)N[C@@H](CCCNC(=N)N)C(=O)N1CCC[C@H]1C(=O)N[C@@H](CCCNC(=N)N)C(=O)N[C@@H](CC(N)=O)C(N)=O ({Acetyl(2-thienyl)}-[NMeN]FRPRN-NH2)
Activity ([1]; filed as antagonist): Active

CN(C(=O)Cc1cccs1)[C@@H](Cc1c[nH]c2ccccc12)C(=O)N[C@@H](Cc1ccccc1)C(=O)N[C@@H](CCCNC(=N)N)C(=O)N1CCC[C@H]1C(N)=O ({Acetyl(2-thienyl)}-[NMeW]FRP-NH2)
Activity (Neuromedin-U receptor 2 [2]): Active | Activity ([1]; filed as antagonist): Active

CN(C(=O)Cc1cccs1)[C@@H](Cc1c[nH]c2ccccc12)C(=O)N[C@@H](Cc1ccccc1)C(=O)N[C@@H](CCCNC(=N)N)C(=O)N1CCC[C@H]1C(=O)N[C@@H](CCCCN)C(=O)N[C@@H](CC(N)=O)C(N)=O ({Acetyl(2-thienyl)}-[NMeW]FRPKN-NH2)
Activity [1]: inactive

CN(C(=O)Cc1cccs1)[C@@H](Cc1c[nH]c2ccccc12)C(=O)N[C@@H](Cc1ccccc1)C(=O)N[C@@H](CCCNC(=N)N)C(=O)N1CCC[C@H]1C(=O)N[C@@H](CCCNC(=N)N)C(N)=O ({Acetyl(2-thienyl)}-[NMeW]FRPR-NH2)
Selectivity ratio (Homo sapiens): 2.1 | Activity ([1]; filed as antagonist): Active

CN(C(=O)Cc1cccs1)[C@@H](Cc1c[nH]c2ccccc12)C(=O)N[C@@H](Cc1ccccc1)C(=O)N[C@@H](CCCNC(=N)N)C(=O)N1CCC[C@H]1C(=O)N[C@@H](CCCNC(=N)N)C(=O)O ({Acetyl(2-thienyl)}-[NMeW]FRPR-OH)
Activity (Neuromedin-U receptor 2 [2]): Active | Activity ([1]; filed as antagonist): Active

CN(C(=O)Cc1cccs1)[C@@H](Cc1c[nH]c2ccccc12)C(=O)N[C@@H](Cc1ccccc1)C(=O)N[C@@H](CCCNC(=N)N)C(=O)N1CCC[C@H]1C(=O)N[C@@H](CCCNC(=N)N)C(=O)N[C@@H](CC(=O)O)C(N)=O ({Acetyl(2-thienyl)}-[NMeW]FRPRD-NH2)
Activity ([1]; filed as antagonist): Active

CN(C(=O)Cc1cccs1)[C@@H](Cc1c[nH]c2ccccc12)C(=O)N[C@@H](Cc1ccccc1)C(=O)N[C@@H](CCCNC(=N)N)C(=O)N1CCC[C@H]1C(=O)N[C@@H](CCCNC(=N)N)C(=O)N[C@@H](CC(N)=O)C(N)=O ({Acetyl(2-thienyl)}-[NMeW]FRPRN-NH2)
Activity ([1]; filed as antagonist): Active

CN(C(=O)Cc1cccs1)[C@@H](Cc1c[nH]c2ccccc12)C(=O)N[C@@H](Cc1ccccc1)C(=O)N[C@@H](CCCNC(=N)N)C(=O)N1CCC[C@H]1C(=O)N[C@@H](CCCNC(=N)N)C(=O)N[C@@H](CC(N)=O)C(=O)O ({Acetyl(2-thienyl)}-[NMeW]FRPRN-OH)
Activity ([1]; filed as antagonist): Active

CN(C(=O)Cc1cccs1)[C@@H](Cc1c[nH]c2ccccc12)C(=O)N[C@@H](Cc1ccccc1)C(=O)N[C@@H](CCCNC(=N)N)C(=O)N1CCC[C@H]1C(=O)N[C@@H](CCCNC(=N)N)C(=O)N[C@@H](CCC(N)=O)C(N)=O ({Acetyl(2-thienyl)}-[NMeW]FRPRQ-NH2)
Activity ([1]; filed as antagonist): Active

CN(C(=O)Cc1cccs1)[C@@H](Cc1c[nH]c2ccccc12)C(=O)N[C@@H](Cc1ccccc1)C(=O)N[C@@H](CCCNC(=N)N)C(=O)N1CCC[C@H]1C(=O)N[C@@H](CCCCNC(=N)N)C(N)=O ({Acetyl(2-thienyl)}-[NMeW]FRP[hArg]-NH2)
Activity (Neuromedin-U receptor 2 [2]): Active | Activity ([1]; filed as antagonist): Active

CN(C(=O)Cc1cccs1)[C@@H](Cc1c[nH]c2ccccc12)C(=O)N[C@@H](Cc1ccccc1)C(=O)N[C@@H](CCCNC(=N)N)C(=O)N1CCCC[C@H]1C(=O)N[C@@H](CCCNC(=N)N)C(=O)N[C@@H](CC(N)=O)C(N)=O ({Acetyl(2-thienyl)}-[NMeW]FR[Pip]RN-NH2)
Activity ([1]; filed as antagonist): Active

CC(C)C[C@H](NC(=O)[C@H](Cc1c[nH]c2ccccc12)N(C)C(=O)Cc1cccs1)C(=O)N[C@@H](CCCNC(=N)N)C(=O)N1CCC[C@H]1C(=O)N[C@@H](CCCNC(=N)N)C(=O)N[C@@H](CC(N)=O)C(N)=O ({Acetyl(2-thienyl)}-[NMeW]LRPRN-NH2)
Activity ([1]; filed as antagonist): Active

CN(C(=O)Cc1cccs1)[C@@H](Cc1c[nH]c2ccccc12)C(=O)N[C@@H](Cc1c[nH]c2ccccc12)C(=O)N[C@@H](CCCNC(=N)N)C(=O)N1CCC[C@H]1C(=O)N[C@@H](CCCNC(=N)N)C(=O)N[C@@H](CC(N)=O)C(N)=O ({Acetyl(2-thienyl)}-[NMeW]WRPRN-NH2)
Activity ([1]; filed as antagonist): Active

CN(C(=O)Cc1cccs1)[C@@H](Cc1c[nH]c2ccccc12)C(=O)N[C@@H](Cc1ccc(F)cc1)C(=O)N[C@@H](CCCNC(=N)N)C(=O)N1CCC[C@H]1C(=O)N[C@@H](CCCNC(=N)N)C(N)=O ({Acetyl(2-thienyl)}-[NMeW][Phe(4-F)]RPR-NH2)
Kb [3]: 6.4 nM | Activity [4]: inactive | Activity [5]: inactive | Activity [6]: Active | Kb (Neuromedin-U receptor 2 [7]): 41 nM | Kb (Neuromedin-U receptor 2 [8]): 41.7 nM | Activity (Neuromedin-U receptor 2 [2]): Active | Kb (Neuromedin-U receptor 1): 6.46 nM | half-life [9]: 1.9 min | Activity ([1]; filed as antagonist): Active

CN(C(=O)Cc1cccs1)[C@@H](Cc1c[nH]c2ccccc12)C(=O)N1Cc2ccccc2C[C@H]1C(=O)N[C@@H](CCCNC(=N)N)C(=O)N1CCC[C@H]1C(=O)N[C@@H](CCCNC(=N)N)C(N)=O ({Acetyl(2-thienyl)}-[NMeW][Tic]RPR-NH2)
Selectivity ratio (Homo sapiens): 2

CN(C(=O)Cc1cccs1)[C@@H](Cc1c[nH]c2ccccc12)C(=O)N[C@@](C)(Cc1ccccc1)C(=O)N[C@@H](CCCNC(=N)N)C(=O)N1CCC[C@H]1C(=O)N[C@@H](CCCNC(=N)N)C(N)=O ({Acetyl(2-thienyl)}-[NMeW][αMeF]RPR-NH2)
Kb [3]: 45 nM | Activity [4]: inactive | Drug metabolism [10]: Metabolite_Detected | Stability [11]: Stable | Activity [5]: inactive | Kb (Neuromedin-U receptor 2 [7]): 421 nM | Kb (Neuromedin-U receptor 2 [8]): 417 nM | Retention_time [12]: 48.27 min | remaining at 0.25 h [13]: 97% | Activity (Neuromedin-U receptor 2 [2]): Dose-Dependent Effect | Kb (Neuromedin-U receptor 1): 44.7 nM | Selectivity ratio (Homo sapiens): 2.3 | half-life [9]: 5 min | Stability [14]: Unstable | remaining at 2 h [15]: 96.7% | Activity ([1]; filed as antagonist): Dose-Dependent Effect

CN(C(=O)Cc1cccs1)[C@@H](Cc1ccc(O)cc1)C(=O)N[C@@H](Cc1ccccc1)C(=O)N[C@@H](CCCNC(=N)N)C(=O)N1CCC[C@H]1C(=O)N[C@@H](CCCNC(=N)N)C(=O)N[C@@H](CC(N)=O)C(N)=O ({Acetyl(2-thienyl)}-[NMeY]FRPRN-NH2)
Activity ([1]; filed as antagonist): Active
